Here are results for 6 compounds from patent US20240335543A1, “IONIZABLE AMINE AND ESTER LIPIDS AND LIPID NANOPARTICLES” (Beam Therapeutics Inc., priority 2021, published 2024).

Each structure is given as a SMILES string.

Series [1] in a line: RNA encapsulation efficiency of LNPs by Ribogreen assay. The series is classed as physicochemical. Conditions: LNP with 47.5% Ionizable Lipid: 40% cholesterol: 2.5% PEG-2000 DMG: 10% DPSC, N/P 4-8. The method, then:
(§1) LNPs were prepared with 47.5% Ionizable Lipid (e.g., a compound provided herein): 40% cholesterol: 2.5% PEG-2000 DMG: 10% DPSC and an N/P ratio range of 4-8. LNPs were formed by microfluidic mixing of the lipid and NA solutions using a Precision Nanosystems NanoAssemblr Spark or Benchtop series Instruments, according to the manufacturer's protocol. A ratio of aqueous to organic solvent of approximately 2:1 or 3:1 was maintained during mixing using differential flow rates. After mixing, LNPs were collected, diluted in phosphate buffer saline (PBS) or Tris-buffered saline (TBS) (approximately 1:1 v/v). Further buffer exchange was conducted using dialysis in PBS or TBS at 4° C. for 4 to 24 hours against a 20 kDa filter. After this initial dialysis, each individual LNP preparation was characterized via dynamic light scattering (DLS) to measure the size (e.g., diameter) and polydispersity. LNPs falling within specific diameter and polydispersity ranges were pooled, and further dialyzed against PBS or TBS at 4° C. for 1 to 4 hours against a 100 kDa dialysis cassette. After the second dialysis, LNPs were sterile filtered using 0.22 μm filter and stored at 4° C. for further use.
RNA concentration and encapsulation efficiency were determined by Ribogreen assay (BioTek Synergy LX plate reader).

The nature of series [2]: LNP hydrodynamic diameter and polydispersity index by dynamic light scattering (DLS). Format: physicochemical. The settings on record: LNP with 47.5% Ionizable Lipid: 40% cholesterol: 2.5% PEG-2000 DMG: 10% DPSC, N/P 4-8. The method, then: as §1
LNP hydrodynamic diameter and polydispersity index (PDI) were measured using high throughput dynamic light scattering (DLS) (Stunner, Unchained Labs). LNPs were diluted 1×TBS or PBS to an appropriate concentration and analyzed.

For another series, the system named is ALAS1 target site. Kind of series: In vivo base editing in liver with LNPs carrying adenine base editor mRNA and sgRNA, targeted deep sequencing. Conditions: Balb/C mice, tail vein, 0.15 mg/kg total RNA, ABE mRNA + ALAS1 sgRNA 1:1, tissues four to six days post-dose. Here is the method:
Exemplary LNP preparations were selected to determine each preparation's ability to perform base editing in a Balb/C mouse model as described herein.
Lipid nanoparticle components were dissolved in 100% ethanol at specified lipid component molar ratios. mRNA encoding an adenine base editor and a chemically-modified sgRNA was dissolved at a mass ratio of 1:1 in 50 mM citrate, pH 4.0, resulting in a concentration of NA cargo of approximately 0.1 mg/mL.
LNP preparations were formulated with molar ratios of 47.5% Ionizable Lipid: 40% Cholesterol: 2.5% PEG2000-DMG: 10% DSPC total lipid to NA mass ratio of 6 to 12.
LNP preparations were formed by microfluidic mixing of the lipid and NA solutions using a Precision Nanosystems NanoAssemblr Ignite series Instruments, according to the manufacturer's protocol.
A 3:1 ratio of aqueous to organic solvent was maintained during mixing using differential flow rates. After mixing, LNP preparations were collected, diluted in TBS (approximately 7:1 v/v), and further buffer exchange was conducted using dialysis in TBS at 4° C. for 8 to 24 hours against a 20 kDa filter. After this initial dialysis, each individual LNP preparation was characterized via dynamic light scattering (DLS) to measure size and polydispersity. pKa of a subpopulation of LNP preparations was measured via TNS assay.
After dialysis, LNP preparations were sterile filtered using 0.22 micron sterile filter and stored at 4° C. for further use. In some embodiments, LNP preparations were concentrated using 100 kDa Amicon filters per manufacturer's protocol.
Male Balb/C mice aged approximately 8-12 weeks were used in the experiments described herein. […]
Age-matched mice were also used to administer vehicle (1×TBS) via tail vein injection as a control. […] Base editing was determined by performing targeted deep sequencing analysis at the ALAS1 target site using extracted genomic DNA. […] Library size and concentration was confirmed by Fragment Analyzer (Agilent) and analyzed for whole genome sequencing using an Illumina HiSeq.

The next series deals with Spleen. Kind of series: Barcoded LNP biodistribution screen, fold above input (FAI) in spleen. The series is classed as in vivo. The settings on record: pooled LNP IV tail vein, mice, 4 hours post-dose. Here is the method: (§2) Male and female mice aged approximately 8-12 weeks were used for studies described by the present Example. Each mouse was temporarily restrained and pooled LNP was administered IV via tail vein injection in up to five animals per experiment. Age-matched mice was also used to administer vehicle (1×TBS) via tail vein injection in up to three animals per experiment. Additional routes of administration can also be conducted including intracerebral ventricular (ICV), intracisterna manga (ICM), intrathecal (IT), intramuscular (IM), nebulization, intranasal (IN), subcutaneous (SC), intraarticular, and intradermal (ID). […]
Liver, kidney, lung, and muscle (e.g. skeletal and cardiac) tissues may be mechanically, and then enzymatically digested using a mixture of proteinases, then passed through a 70 μm filter to generate single cell suspensions. […] Tissues were treated with ACK buffer to lyse red blood cells, and then stained with fluorescently-labeled antibodies for flow cytometry and fluorescence-activated cell sorting (FACS). […]
(§3) To screen for preferential LNP delivery to a target tissues, the relative abundance of each barcode in one or more target tissues was measured and compared to the relative abundance of each barcode to its corresponding relative input abundance to determine fold above input (FAI) for each barcode. […]

Another series relates to Liver. Kind of series: Barcoded LNP biodistribution screen, fold above input (FAI) in liver. Format: in vivo. The settings on record: pooled LNP IV tail vein, mice, 4 hours post-dose. The method, then: as §2, with “(ID). At 4 hours post-dose, tissues including liver, spleen, bone marrow, testes, gastrocnemius, quadricep, lung, heart, kidney, and pancreas may be collected for analysis.” for “(ID).”
as §3
(§4) The FAI is the normalized relative abundance of a barcode in a selected sample as compared to its frequency in the input. […] The FAI value of the barcode was calculated by normalizing the relative abundance in the barcode sequence counts in the isolated samples to its relative abundance in the administration input. […]

The subject of the next series is Lung. Kind of series: Barcoded LNP biodistribution screen, fold above input (FAI) in lung. The series is classed as in vivo. Conditions: pooled LNP IV tail vein, mice, 4 hours post-dose. The method, then:
as §2, with “(ID). At 4 hours post-dose, tissues including liver, spleen, bone marrow, testes, gastrocnemius, quadricep, lung, heart, kidney, and pancreas may be collected for analysis.” for “(ID).”
as §3, §4

Take `CCCCCCC(CC)OC(=O)CCCCCCCCN(CCCCCCCCC(=O)OC(CC)CCCCCC)CCCNC(=O)c1cccc(C(=O)NCCCN(CCCCCCCCC(=O)OC(CC)CCCCCC)CCCCCCCCC(=O)OC(CC)CCCCCC)c1` (stereo not drawn) [Compound 7-1, tetra(nonan-3-yl) 9,9′,9″,9′″-(((isophthaloylbis(azanediyl))bis(propane-3,1-diyl))bis(azanetriyl))tetranonanoate]: in series [1], the “Mean Encapsulation Efficiency (%)” value came out at 76.7%. In addition, in series [2], the “Mean Diameter (nm)” value was determined as 82.4 nm and the “Mean PDI” value came out at 0.16. Also, the “base editing observed in liver” value in the series with ALAS1 target site is given as 28.2%.

For `CCCCCCC(CC)OC(=O)CCCCCCCCN(CCCCCCCCC(=O)OC(CC)CCCCCC)CCCNC(=O)c1ccc(C(=O)NCCCN(CCCCCCCCC(=O)OC(CC)CCCCCC)CCCCCCCCC(=O)OC(CC)CCCCCC)cc1` (stereo not drawn) [Compound 7-2, tetra(nonan-3-yl) 9,9′,9″,9′″-(((terephthaloylbis(azanediyl))bis(propane-3,1-diyl))bis(azanetriyl))tetranonanoate], the “Mean Encapsulation Efficiency (%)” value in series [1] is 58.4%. Also, in series [2], the “Mean Diameter (nm)” value is 110.0 nm and the “Mean PDI” value amounted to 0.08. Moreover, the “base editing observed in liver” value with ALAS1 target site was determined as 3.1%.

For `CCCCCCC(CC)OC(=O)CCCCCCCCN(CCCCCCCCC(=O)OC(CC)CCCCCC)CCCNC(=O)c1cc(C(=O)NCCCN(CCCCCCCCC(=O)OC(CC)CCCCCC)CCCCCCCCC(=O)OC(CC)CCCCCC)cc(C(=O)OCCN(C)C)c1` (stereo not drawn) [Compound 7-5, tetra(nonan-3-yl) 9,9′,9″,9′-((((5-((2-(dimethylamino)ethoxy)carbonyl)isophthaloyl)bis(azanediyl))bis(propane-3,1-diyl))bis(azanetriyl))tetranonanoate], the “Mean Encapsulation Efficiency (%)” value in series [1] amounted to 94.7%. In addition, in series [2], the “Mean Diameter (nm)” value is 124.6 nm and the “Mean PDI” value was 0.10. Also, the “base editing observed in liver” value with ALAS1 target site amounted to 5.2%.

`CCCCCC(CCCCC)CCOC(=O)CCCCCCCOC(=O)c1cc(C(=O)OCCCCCCCC(=O)OCCC(CCCCC)CCCCC)cc(C(=O)OCCCN(C)C)c1` [Compound 7-7, 1-(3-(dimethylamino)propyl) 3,5-bis(8-oxo-8-((3-pentyloctyl)oxy)octyl) benzene-1,3,5-tricarboxylate]: the “Mean Encapsulation Efficiency (%)” value in series [1] was 75.3%. Also, in series [2], the “Mean Diameter (nm)” value is recorded as 86.5 nm and the “Mean PDI” value amounted to 0.09.

For the compound `CCCCCC(CCCCC)CCOC(=O)CCCCCCCOC(=O)c1cc(C(=O)OCCCCCCCC(=O)OCCC(CCCCC)CCCCC)cc(C(=O)OCCCCN(C)C)c1` [Compound 7-9, 1-(4-(dimethylamino)butyl) 3,5-bis(8-oxo-8-((3-pentyloctyl)oxy)octyl) benzene-1,3,5-tricarboxylate], in series [1], the “Mean Encapsulation Efficiency (%)” value stood at 84.9%. In addition, in series [2], the “Mean Diameter (nm)” value was determined as 90.8 nm and the “Mean PDI” value was found to be 0.11.

On to `CCCCC/C=C\C/C=C\CCCCCCCCC(CCCCCCCC/C=C\C/C=C\CCCCC)OC(=O)CCCN(C)C` [MC3, (6Z,9Z,28Z,31Z)-heptatriaconta-6,9,28,31-tetraen-19-yl 4-(dimethylamino) butanoate], for which the “FAI (Spleen)” value came out at 0.45 in the series on Spleen (Table 3 screening experiment) and 1.71 with Spleen (Table 4 screening experiment). In addition, the “FAI (Liver)” value amounted to 0.31 in the series on Liver (Table 3 screening experiment) and 1.30 in the series on Liver (Table 4 screening experiment). Further, the “FAI (Lung)” value was determined as 0.65 in the series with Lung (Table 3 screening experiment) and 1.26 with Lung (Table 4 screening experiment).
